This note sets out measurements from ChEMBL document CHEMBL5729675, “Sulfonamide compound or salt thereof” (2023).

pIC50: −log10 of the molar value.

The target in this assay is Ribonucleotide reductase (Homo sapiens, UniProt P23921+Q7LG56). The assay is described as follows: Human RNR Inhibition Effect: The inhibitory activity against the ribonucleotide reduction reaction (hereinafter referred to as RNR reaction) of the test compound was determined by measuring the formation of deoxycytidine diphosphate (hereinafter referred to as dCDP) from cytidine diphosphate (hereinafter referred to as CDP) by the following method.Human M1 subunit and human M2 subunit (mutant ….
Sequence of Ribonucleotide reductase (P23921 whole entry, looked up): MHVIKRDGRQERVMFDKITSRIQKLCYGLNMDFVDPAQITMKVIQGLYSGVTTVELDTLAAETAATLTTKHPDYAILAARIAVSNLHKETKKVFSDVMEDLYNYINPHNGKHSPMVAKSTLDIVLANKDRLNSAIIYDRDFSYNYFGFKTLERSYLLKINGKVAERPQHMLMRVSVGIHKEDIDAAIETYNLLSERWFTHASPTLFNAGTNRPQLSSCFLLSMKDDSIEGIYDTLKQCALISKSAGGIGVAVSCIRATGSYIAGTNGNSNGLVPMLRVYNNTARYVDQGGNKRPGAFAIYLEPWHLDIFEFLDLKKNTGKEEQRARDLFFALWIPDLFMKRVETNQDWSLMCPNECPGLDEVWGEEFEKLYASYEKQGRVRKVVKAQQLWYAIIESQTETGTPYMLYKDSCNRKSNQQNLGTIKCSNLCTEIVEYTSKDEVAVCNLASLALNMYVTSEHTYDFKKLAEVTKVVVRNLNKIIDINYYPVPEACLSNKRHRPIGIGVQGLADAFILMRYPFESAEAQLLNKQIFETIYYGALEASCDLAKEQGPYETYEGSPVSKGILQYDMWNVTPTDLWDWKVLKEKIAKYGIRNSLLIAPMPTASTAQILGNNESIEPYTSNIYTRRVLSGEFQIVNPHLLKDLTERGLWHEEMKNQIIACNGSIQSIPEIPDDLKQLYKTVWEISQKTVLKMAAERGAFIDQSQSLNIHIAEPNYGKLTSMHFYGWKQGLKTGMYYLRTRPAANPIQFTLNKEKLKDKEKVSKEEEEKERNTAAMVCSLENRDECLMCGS
Sequence of Ribonucleotide reductase (Q7LG56 whole entry, looked up): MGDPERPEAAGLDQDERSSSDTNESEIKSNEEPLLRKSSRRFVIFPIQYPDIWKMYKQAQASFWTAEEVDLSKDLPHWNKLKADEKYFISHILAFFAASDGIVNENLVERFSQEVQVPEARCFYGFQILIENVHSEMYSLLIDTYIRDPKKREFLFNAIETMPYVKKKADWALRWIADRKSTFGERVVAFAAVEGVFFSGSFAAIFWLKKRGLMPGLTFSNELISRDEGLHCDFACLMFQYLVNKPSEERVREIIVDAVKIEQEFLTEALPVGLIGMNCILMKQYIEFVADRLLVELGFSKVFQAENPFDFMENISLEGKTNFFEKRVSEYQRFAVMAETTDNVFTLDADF
In general, pIC50 refers to the negative decadic logarithm of the IC50, by convention in mol/L. Read a low pIC50 as a large IC50. `Cc1ccc(F)c([C@@H](C)[C@H](NS(=O)(=O)c2ccccc2C(N)=O)c2n[nH]c(=O)o2)c1C` had a pIC50 of 6.59.
Regarding `COc1c(S(=O)(=O)N[C@H](c2n[nH]c(=O)o2)[C@H](C)c2c(F)ccc(C)c2C)ccc(Cl)c1C(C)OC(C)=O` (some centres not stated), the pIC50 is 6.77.
Consider `Cc1ccc(F)c([C@@H](C)[C@H](NS(=O)(=O)c2ccc3c(c2)CC(=O)N3)c2n[nH]c(=O)o2)c1C`, for which the pIC50 is 6.13.
To `Cc1ccc(F)c([C@@H](C)[C@H](NS(=O)(=O)c2ccc(Cl)c(C(=O)N3C4CCC3COC4)n2)c2n[nH]c(=O)o2)c1C` belongs 7.15; to `CC(=O)c1cc(Cl)ccc1S(=O)(=O)N[C@H](c1n[nH]c(=O)o1)[C@H](C)c1c(F)ccc(C)c1C`, 6.57; to `Cc1cccc([C@@H](C)[C@H](NS(=O)(=O)c2ccc(Br)cc2C(N)=O)c2n[nH]c(=O)o2)c1C`, 6.42.
The result for `COC(=O)c1cc(Cl)cnc1S(=O)(=O)N[C@H](c1n[nH]c(=O)o1)[C@H](C)c1c(F)ccc(C)c1C` reads 6.47; that for `COC(=O)c1cc(Br)cnc1S(=O)(=O)N[C@H](c1n[nH]c(=O)o1)[C@H](C)c1c(F)ccc(C)c1C`, 6.35; that for `COc1c(S(=O)(=O)N[C@H](c2n[nH]c(=O)o2)[C@H](C)c2c(F)ccc(C)c2C)ncc(Cl)c1C(C)O` (some centres not stated), 6.70.
The result for `Cc1ccc(F)c([C@@H](C)[C@H](NS(=O)(=O)c2ccc(Cl)c3c2OCCC3N)c2n[nH]c(=O)o2)c1C` (some centres not stated) reads 6.89.
`Cc1ccc(F)c([C@@H](C)[C@H](NS(=O)(=O)c2c(F)cc(Cl)cc2F)c2n[nH]c(=O)o2)c1C` gave a pIC50 of 6.57.
`COc1cc(Cl)ccc1S(=O)(=O)N[C@H](c1n[nH]c(=O)o1)[C@H](C)c1c(F)ccc(-c2c[nH]nc2C)c1C` had a pIC50 of 6.74.
To `COc1cc(Cl)ccc1S(=O)(=O)N[C@H](c1noc(=O)[nH]1)[C@H](C)c1c(F)ccc(C)c1C` belongs 6.60; to `COc1ncc(-c2ccc(F)c([C@@H](C)[C@H](NS(=O)(=O)c3ccc(Cl)cc3OC)c3n[nH]c(=O)o3)c2C)cn1`, 6.55; to `Cc1ccc(F)c([C@@H](C)[C@H](NS(=O)(=O)c2ncc(Cl)cc2C(=O)O)c2n[nH]c(=O)o2)c1C`, 6.30.
The result for `Cc1ccc(F)c([C@@H](C)[C@H](NS(=O)(=O)c2ccc3c(c2)CCCO3)c2n[nH]c(=O)o2)c1C` reads 6.49.
To `Cc1ccc(F)c([C@@H](C)[C@H](NS(=O)(=O)c2c(F)cc(F)c3c2OCCC3O)c2n[nH]c(=O)o2)c1C` (some centres not stated) belongs 6.64; to `Cc1ccc(F)c([C@@H](C)[C@H](NS(=O)(=O)c2ccc(Cl)c(C(C)(C)O)n2)c2n[nH]c(=O)o2)c1C`, 7.05.
Take `C[C@H](c1cc(F)cc2ccccc12)[C@H](NS(=O)(=O)c1ccc(Cl)cc1C(N)=O)c1n[nH]c(=O)o1`: the pIC50 was 6.22.
The result for `Cc1ccc(F)c([C@@H](C)[C@H](NS(=O)(=O)c2cc(C(=O)O)c(Cl)cc2C(N)=O)c2n[nH]c(=O)o2)c1C` reads 6.72; that for `CC1CCc2cccc(C(C)[C@H](NS(=O)(=O)c3ccc(Br)cn3)c3n[nH]c(=O)o3)c21` (some centres not stated), 6.22; that for `Cc1ccc(F)c([C@@H](C)[C@H](NS(=O)(=O)c2c(F)cccc2F)c2n[nH]c(=O)o2)c1C`, 6.02.
The result for `Cc1ccc(F)c([C@@H](C)[C@H](NS(=O)(=O)c2ccc(Cl)cc2C(=O)NOCc2ccccc2)c2n[nH]c(=O)o2)c1C` reads 6.04; that for `Cc1ccc(S(=O)(=O)N[C@H](c2n[nH]c(=O)o2)[C@H](C)c2c(F)ccc(C)c2C)cc1S(=O)(=O)N1CCCCC1`, 6.33; that for `COc1c(S(=O)(=O)N[C@H](c2n[nH]c(=O)o2)[C@H](C)c2c(F)ccc(C)c2C)ccc(Cl)c1C(C)(C)O`, 6.96.
To `COc1cc(Cl)ccc1S(=O)(=O)N[C@H](c1n[nH]c(=O)o1)[C@H](C)c1c(F)ccc(-c2cn(C)nc2C)c1C` belongs 6.55; to `Cc1ccc(F)c([C@@H](C)[C@H](NS(=O)(=O)c2cccc3[nH]ccc23)c2n[nH]c(=O)o2)c1C`, 6.15.
`Cc1ccc(F)c([C@@H](C)[C@H](NS(=O)(=O)c2cc(-c3nnco3)ccc2C(N)=O)c2n[nH]c(=O)o2)c1C` had a pIC50 of 7.05.
To `Cc1ccc(F)c([C@@H](C)[C@H](NS(=O)(=O)c2ccc(Cl)c(C(=O)N3CCC4(COC4)C3)n2)c2n[nH]c(=O)o2)c1C` belongs 6.89; to `COc1cc(Cl)ccc1S(=O)(=O)N[C@H](c1n[nH]c(=O)o1)[C@H](C)c1c(F)ccc(-c2cnn(C3CCC3)c2)c1C`, 6.66; to `COc1cc(Cl)ccc1S(=O)(=O)N[C@H](c1n[nH]c(=O)o1)[C@H](C)c1c(F)ccc2ccccc12`, 6.70.
Regarding `Cc1ccc(F)c([C@@H](C)[C@H](NS(=O)(=O)c2ccc(Cl)c3c2C(=O)CCC3)c2n[nH]c(=O)o2)c1C`, the pIC50 was 6.62.
To `Cc1c(Cl)ccc(F)c1[C@@H](C)[C@H](NS(=O)(=O)c1ncc(Cl)cc1C(N)=O)c1n[nH]c(=O)o1` belongs 7.00.
`CC(O)c1nc(S(=O)(=O)N[C@H](c2n[nH]c(=O)o2)[C@H](C)c2cccc3c2CCC3)ccc1Cl` (some centres not stated) gave a pIC50 of 6.40.
The result for `COc1cc(Cl)ccc1S(=O)(=O)N[C@H](c1n[nH]c(=O)o1)[C@H](C)c1c(F)ccc(C)c1C` reads 6.85; that for `CC(=O)N1CCOc2c(S(=O)(=O)N[C@H](c3n[nH]c(=O)o3)[C@H](C)c3cccc(C)c3C)ccc(Cl)c21`, 6.25.
The result for `Cc1ccc(F)c([C@@H](C)[C@H](NS(=O)(=O)c2ccc(Cl)c3c2OCC(=O)N3C)c2n[nH]c(=O)o2)c1C` reads 7.00; that for `CC(=O)OC1(C(F)(F)F)CCOc2c(S(=O)(=O)N[C@H](c3n[nH]c(=O)o3)[C@H](C)c3c(F)ccc(C)c3C)ccc(Cl)c21` (some centres not stated), 6.96.
The result for `CCN1CCOc2c(S(=O)(=O)N[C@H](c3n[nH]c(=O)o3)[C@H](C)c3c(F)ccc(C)c3C)ccc(Cl)c21` reads 6.96; that for `COc1c(S(=O)(=O)N[C@H](c2n[nH]c(=O)o2)[C@H](C)c2c(F)ccc(C)c2C)ncc(Cl)c1C(C)OC(C)=O` (some centres not stated), 6.37; that for `Cc1ccc(F)c([C@@H](C)[C@H](NS(=O)(=O)c2ccc(Cl)cc2-c2ccno2)c2n[nH]c(=O)o2)c1C`, 6.64.
The compound `C[C@H](c1cccc2c1-c1ccccc1C2)[C@H](NS(=O)(=O)c1ccc(Br)cn1)c1n[nH]c(=O)o1` gave a negative logarithm of the IC50 (pIC50) of 6.07.
For the compound `Cc1ccc(F)c([C@@H](C)[C@H](NS(=O)(=O)c2ccc3c(c2)N(C)CCC3)c2n[nH]c(=O)o2)c1C`, the pIC50 is 6.66.
The result for `Cc1ccc(F)c([C@@H](C)[C@H](NS(=O)(=O)c2cc(C(=O)N3CCOCC3)ccc2C(N)=O)c2n[nH]c(=O)o2)c1C` reads 6.96; that for `CNC(=O)c1cc(Br)cnc1S(=O)(=O)N[C@H](c1n[nH]c(=O)o1)[C@H](C)c1c(F)ccc(C)c1C`, 6.60; that for `COc1cc(Cl)ccc1S(=O)(=O)N[C@H](c1n[nH]c(=O)o1)[C@H](C)c1c(F)ccc(-c2cn[nH]c2)c1C`, 6.80.
The result for `Cc1ccc(F)c([C@@H](C)[C@H](NS(=O)(=O)c2cccc3c2OC(C)(C)CC3=O)c2n[nH]c(=O)o2)c1C` reads 6.62; that for `Cc1ccc(S(=O)(=O)N[C@H](c2n[nH]c(=O)o2)[C@H](C)c2c(F)ccc(C)c2C)cc1`, 6.39.
The result for `Cc1ccc(F)c([C@@H](C)[C@H](NS(=O)(=O)c2ccc(Cl)c(C(=O)N3CCCC3)n2)c2n[nH]c(=O)o2)c1C` reads 7.22.
In turn, `Cc1ccc(F)c([C@@H](C)[C@H](NS(=O)(=O)c2ccc(Cl)cc2C(=O)N(C)C)c2n[nH]c(=O)o2)c1C` showed a pIC50 of 6.30.
To `COc1cc(Cl)ccc1S(=O)(=O)N[C@H](c1n[nH]c(=O)o1)[C@H](C)c1c(F)ccc(-c2ccc(N3CCOCC3)nc2)c1C` belongs 6.72; to `Cc1ccc(F)c([C@@H](C)[C@H](NS(=O)(=O)c2cc(OCC(F)F)ccc2C(N)=O)c2n[nH]c(=O)o2)c1C`, 7.15.
To `Cc1cc(F)cc([C@@H](C)[C@H](NS(=O)(=O)c2ccc(Cl)cc2C(N)=O)c2n[nH]c(=O)o2)c1C` belongs 6.35; to `Cc1ccc(S(=O)(=O)N[C@H](c2n[nH]c(=O)o2)[C@H](C)c2c(F)ccc3ccccc23)c(C(N)=O)c1`, 6.77.
The result for `Cc1ccc(F)c([C@@H](C)[C@H](NS(=O)(=O)c2cc(C(C)(C)O)ccc2C(N)=O)c2n[nH]c(=O)o2)c1C` reads 7.22; that for `COc1nc(Cl)ccc1S(=O)(=O)N[C@H](c1n[nH]c(=O)o1)[C@H](C)c1c(F)ccc(C)c1C`, 7.00.
For `C[C@H](c1c(F)ccc2ccccc12)[C@H](NS(=O)(=O)c1ccc(Cl)cc1C(N)=O)c1n[nH]c(=O)o1`, the pIC50 is 6.96.
Compound `Cc1ccc(F)c([C@@H](C)[C@H](NS(=O)(=O)c2ccc3[nH]nnc3c2)c2n[nH]c(=O)o2)c1C` had a pIC50 of 6.18.
`CC(=O)OC(C)c1nc(S(=O)(=O)N[C@H](c2n[nH]c(=O)o2)[C@H](C)c2cccc3c2CCC3)ccc1Cl` (some centres not stated) gave a pIC50 of 6.68.
`COc1cc(C(N)=O)ccc1S(=O)(=O)N[C@H](c1n[nH]c(=O)o1)[C@H](C)c1c(F)ccc(C)c1C` showed a pIC50 of 6.38.
The result for `Cc1ccc(F)c([C@@H](C)[C@H](NS(=O)(=O)c2ccc(Cl)c(C(N)=O)n2)c2n[nH]c(=O)o2)c1C` reads 7.00; that for `COc1cc(Cl)ccc1S(=O)(=O)N[C@H](c1n[nH]c(=O)o1)[C@H](C)c1c(F)ccc(-c2ccc(Cl)nc2)c1C`, 6.47.
To `COc1cc(Cl)ccc1S(=O)(=O)N[C@H](c1n[nH]c(=O)o1)[C@H](C)c1c(F)ccc(-c2cncc(C(=O)N3CCOCC3)c2)c1C` belongs 6.38.
To `Cc1c(Br)ccc(F)c1[C@@H](C)[C@H](NS(=O)(=O)c1ncc(Cl)cc1C(N)=O)c1n[nH]c(=O)o1` belongs 7.22; to `COc1cc(Cl)ccc1S(=O)(=O)N[C@H](c1n[nH]c(=O)o1)[C@H](C)c1c(F)ccc(-c2cnn(C3CC3)c2)c1C`, 6.66.
As to `Cc1ccc(F)c([C@@H](C)[C@H](NS(=O)(=O)c2ccc(Cl)c3c2OCC(=O)N3CCO)c2n[nH]c(=O)o2)c1C`, the pIC50 was 6.89.
To `CC(=O)OC1(C)CCOc2c(S(=O)(=O)N[C@H](c3n[nH]c(=O)o3)[C@H](C)c3c(F)ccc(Br)c3C)ccc(Cl)c21` (some centres not stated) belongs 7.10.
